Data on 17 molecules can be found in patent publication US10266497B2 (ABIDE THERAPEUTICS, INC., priority 2017, dated 2019).

SMILES strings stand for the structures. Like-named read-outs stand apart in the source and are kept apart here. Where only a bound is given, the exact number is not on record here.

Assay [1] addresses T1, MAGL (Homo sapiens, UniProt Q99685).
T1 sequence (Q99685 1-303): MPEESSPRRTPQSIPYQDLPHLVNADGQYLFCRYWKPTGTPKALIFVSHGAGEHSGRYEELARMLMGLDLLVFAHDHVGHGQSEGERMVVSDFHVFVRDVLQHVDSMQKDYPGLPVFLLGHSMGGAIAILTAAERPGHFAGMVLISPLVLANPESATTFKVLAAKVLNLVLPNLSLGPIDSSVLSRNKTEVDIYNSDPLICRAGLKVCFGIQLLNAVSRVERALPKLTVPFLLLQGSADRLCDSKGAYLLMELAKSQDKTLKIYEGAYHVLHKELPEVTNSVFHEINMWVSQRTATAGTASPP
Nature of the assay: In vitro competitive activity-based protein profiling, MAGL, human. Particulars: read-out: MAGL % inh. 1 μM (human).

For assay [2], the target named is T2, MAGL (Mus musculus, UniProt O35678).
T2 sequence (O35678 1-303): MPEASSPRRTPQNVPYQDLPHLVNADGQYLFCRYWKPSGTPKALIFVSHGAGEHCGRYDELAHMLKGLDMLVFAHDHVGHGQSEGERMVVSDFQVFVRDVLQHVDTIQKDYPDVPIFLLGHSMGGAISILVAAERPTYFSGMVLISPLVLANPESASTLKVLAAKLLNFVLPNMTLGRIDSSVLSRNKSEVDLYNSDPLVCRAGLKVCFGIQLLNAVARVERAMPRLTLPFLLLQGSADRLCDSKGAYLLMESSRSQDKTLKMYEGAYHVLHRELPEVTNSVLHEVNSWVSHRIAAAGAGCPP
Nature of the assay: In vitro competitive activity-based protein profiling, MAGL, mouse. Particulars: read-out: MAGL % inh. 1 μM (mouse).

The target in assay [3] is T2, MAGL. In words: Mouse brain proteomes from inhibitor treated mice (oral gavage, sacrificed 4 h after administration). It counts as in vivo. On the set-up: mouse brain membrane fraction for mouse assays; from tissue; host or cells: mouse brain (membrane fraction in vitro; brain proteomes of treated C57Bl/6J mice in vivo). Particulars: 5 mg/kg oral gavage, brain proteome 4 h after administration, read-out: MAGL % inh. 5 mg/kg (mouse).

As for `NC(=O)c1ccn(C(=O)N2CC3CN(Cc4ccc(C5(C(=O)O)CCOCC5)cc4C(F)(F)F)CC3C2)n1` (stereo not drawn) [Example 35, 4-(4-((5-(3-carbamoyl-1H-pyrazole-1-carbonyl)hexahydropyrrolo[3,4-c]pyrrol-2(1H)-yl)methyl)-3-(trifluoromethyl)phenyl)tetrahydro-2H-pyran-4-carboxylic Acid], the inhibition at 1 µM at MAGL [1] and at MAGL [2] was above 75% throughout. Further, at MAGL [3], the inhibition at 5 mg/kg was in the range of 0 to 25%.
Take `C[C@H]1CN(Cc2cccc(Oc3ccc(Cl)cc3)c2)CCN1C(=O)n1ccc(C(=O)O)n1` [Example 311, (S)-1-(4-(3-(4-chlorophenoxy)benzyl)-2-methylpiperazine-1-carbonyl)-1H-pyrazole-3-carboxylic acid]: the inhibition at 1 µM on MAGL [1] and on MAGL [2] was above 75% each time. Also, the inhibition at 5 mg/kg on MAGL [3] fell in the range of 0 to 25%.
In the case of `C[C@@H]1C[C@@H](N(C)Cc2cccc(C(F)(F)F)c2)CCN1C(=O)n1ccc(C(N)=O)n1` [Example 260, 1-((2R,4S)-2-methyl-4-(methyl(3-(trifluoromethyl)benzyl)amino)piper-idine-1-carbonyl)-1H-pyrazole-3-carboxamide], the inhibition at 1 µM on MAGL [1] and on MAGL [2] was above 75% throughout. Also, the inhibition at 5 mg/kg at MAGL [3] was above 75%.
For `O=C(O)c1ccn(C(=O)N2CCC3(CCCN3Cc3ccc(C(F)(F)F)cc3N3CCCCC3)CC2)n1` [Example 404, 1-(1-(2-(piperidin-1-yl)-4-(trifluoromethyl)benzyl)-1,8-diazaspiro[4.5]decane-8-carbonyl)-1H-pyrazole-3-carboxylic acid], the inhibition at 1 µM on MAGL [1] and on MAGL [2] was above 75% in each case. Further, the inhibition at 5 mg/kg on MAGL [3] (C57Bl/6J mice) was in the range of 0 to 25%.
Take `C[C@@H]1CN(Cc2ccc(C(F)(F)F)cc2N2CCCC2)CCN1C(=O)n1ccc(C(=O)O)n1` [Example 327, (R)-1-(2-methyl-4-(2-(pyrrolidin-1-yl)-4-(trifluoromethyl)benzyl)piperazine-1-carbonyl)-1H-pyrazole-3-carboxylic acid]: the inhibition at 1 µM at MAGL [1] and at MAGL [2] was above 75% each time. Besides, the inhibition at 5 mg/kg at MAGL [3] lay in the range of 0 to 25%.
As for `O=C(O)c1nn(C(=O)N2CCC3(CCN(Cc4cccc(Cl)c4C(F)(F)F)C3)CC2)cc1Cl` [Example 26, 4-Chloro-1-(2-(3-chloro-2-(trifluoromethyl)benzyl)-2,8-diazaspiro[4.5]decane-8-carbonyl)-1H-pyrazole-3-carboxylic Acid], the inhibition at 1 µM at MAGL [1] and on MAGL [2] was above 75% each time. Moreover, the inhibition at 5 mg/kg at MAGL [3] was in the range of 0 to 25%.
In the case of `CN(Cc1cc(C(F)(F)F)ccc1N1CCCC1)C1(C)CCN(C(=O)n2ccc(C(=O)O)n2)CC1` [Example 384, 1-(4-methyl-4-(methyl(2-(pyrrolidin-1-yl)-5-(trifluoromethyl)benzyl)amino)piper-idine-1-carbonyl)-1H-pyrazole-3-carboxylic acid], the inhibition at 1 µM at MAGL [1] and on MAGL [2] was above 75% throughout. For the same molecule, on MAGL [3], the inhibition at 5 mg/kg lay in the range of 0 to 25%.
On to `O=C(O)c1ccn(C(=O)N2C[C@H]3C[C@H](Oc4cccc(-c5cccnc5)c4)C[C@H]3C2)n1` [Example 241, 1-(trans-5-(3-(pyridin-3-yl)phenoxy)octa-hydrocyclopenta[c]pyrrole-2-carbonyl)-1H-pyrazole-3-carboxylic acid], for which the inhibition at 1 µM at MAGL [1] and on MAGL [2] was above 75% in each case. In addition, the inhibition at 5 mg/kg at MAGL [3] is 0 to 25%.
With `C[C@H]1CN(Cc2ccc(C(F)(F)F)cc2N2CCCC2)CCN1C(=O)n1ccc(C(=O)O)n1` [Example 328, (S)-1-(2-methyl-4-(2-(pyrrolidin-1-yl)-4-(trifluoromethyl)benzyl)piperazine-1-carbonyl)-1H-pyrazole-3-carboxylic acid], the inhibition at 1 µM on MAGL [1] and at MAGL [2] was above 75% each time. In addition, the inhibition at 5 mg/kg at MAGL [3] fell in the range of 0 to 25%.
`C[C@H]1CC[C@H](C)N1c1cc(C(F)(F)F)ccc1CN1CCN(C(=O)n2ccc(C(=O)O)n2)CC1` [Example 360, 1-(4-(2-((2S,5S)-2,5-dimethylpyrrolidin-1-yl)-4-(trifluoromethyl)benzyl)piperazine-1-carbonyl)-1H-pyrazole-3-carboxylic acid]: the inhibition at 1 µM at MAGL [1] and on MAGL [2] was above 75% in each case. The inhibition at 5 mg/kg at MAGL [3] lay within 0 to 25%.
With `CN(Cc1cccc(C(F)(F)F)c1N1CCCC1)C1(C)CCN(C(=O)n2ccc(C(=O)O)n2)CC1` [Example 382, 1-(4-methyl-4-(methyl(2-(pyrrolidin-1-yl)-3-(trifluoromethyl)benzyl)amino)piper-idine-1-carbonyl)-1H-pyrazole-3-carboxylic acid], the inhibition at 1 µM on MAGL [1] and on MAGL [2] was above 75% throughout. Besides, the inhibition at 5 mg/kg at MAGL [3] fell in the range of 0 to 25%.
With `CN(Cc1cc(N2CCCC2)cc(C(F)(F)F)c1)C1(C)CCN(C(=O)n2ccc(C(=O)O)n2)CC1` [Example 381, 1-(4-methyl-4-(methyl(3-(pyrrolidin-1-yl)-5-(trifluoromethyl)benzyl)amino)piper-idine-1-carbonyl)-1H-pyrazole-3-carboxylic acid], the inhibition at 1 µM at MAGL [1] and at MAGL [2] was above 75% in each case. Besides, on MAGL [3], the inhibition at 5 mg/kg was in the range of 0 to 25%.
As to `Cc1ccc(Oc2cccc(CN3CCN(C(=O)n4ccc(C(=O)O)n4)CC3)c2)cc1` [Example 251, 1-(4-(3-(p-tolyloxy)benzyl)pi-perazine-1-carbonyl)-1H-pyrazole-3-carboxylic acid], the inhibition at 1 µM at MAGL [1] and at MAGL [2] was above 75% each time. In addition, the inhibition at 5 mg/kg on MAGL [3] is 0 to 25%.
On to `O=C(O)c1ccn(C(=O)N2C[C@H]3C[C@H](Oc4cc(Cl)cc(Cl)c4)C[C@H]3C2)n1` [Example 230, 1-(trans-5-(3,5-dichlorophenoxy)octahydrocyclopenta [c]pyrrole-2-carbonyl)-1H-pyrazole-3-carboxylic acid], for which the inhibition at 1 µM at MAGL [1] and at MAGL [2] was above 75% throughout. Further, the inhibition at 5 mg/kg on MAGL [3] is 0 to 25%.
As for `C[C@@H]1CN(Cc2ccc(C(F)(F)F)cc2N2C3CCC2COC3)CCN1C(=O)n1ccc(C(=O)O)n1` [Example 393, 1-((2R)-4-(2-(3-oxa-8-azabicyclo[3.2.1]octan-8-yl)-4-(trifluoromethyl)benzyl)-2-methylpiperazine-1-carbonyl)-1H-pyrazole-3-carboxylic acid], the inhibition at 1 µM on MAGL [1] and on MAGL [2] was above 75% throughout. Also, the inhibition at 5 mg/kg on MAGL [3] lay in the range of 0 to 25%.
With `O=C(O)c1ccn(C(=O)N2CCC3(CCCN3Cc3ccc(C(F)(F)F)cc3N3CCC(F)CC3)CC2)n1` [Example 413, 1-(1-(2-(4-fluoropiperidin-1-yl)-4-(trifluoromethyl)benzyl)-1,8-diazaspiro[4.5]decane-8-carbonyl)-1H-pyrazole-3-carboxylic acid], the inhibition at 1 µM on MAGL [1] and on MAGL [2] was above 75% each time. Also, the inhibition at 5 mg/kg at MAGL [3] (C57Bl/6J mice) fell in the range of 0 to 25%.
Consider `C[C@H]1CN(Cc2cc(F)cc(Oc3ccc(Cl)cc3)c2)CCN1C(=O)n1ccc(C(=O)O)n1` [Example 347, (S)-1-(4-(3-(4-chlorophenoxy)-5-fluorobenzyl)-2-methylpiperazine-1-carbonyl)-1H-pyrazole-3-carboxylic acid], for which the inhibition at 1 µM on MAGL [1] and on MAGL [2] was above 75% each time. Besides, the inhibition at 5 mg/kg at MAGL [3] lay within 0 to 25%.
